Test results published in patent publication US20260374739A1, “SMALL MOLECULAR WEIGHT CHEMICAL COMPOUND TO ANTAGONIZE EPH-EPHRIN TETRAMERIZATION AND INHIBIT BIDIRECTIONAL SIGNALING” (THE BOARD OF REGENTS OF THE UNIVERSITY OF TEXAS SYSTEM, priority 2022, published 2026).
Where two headings read alike, the source gives them in different places.

What was measured:
[1] = tested on: DH neurons in the spinal cord; assay: dorsal horn neuron activation (Tom+) after Zymosan; type: in vivo, mouse; settings: PO
Excerpt: In this example, an in-house method to count and quantify/analyze Tom+ neurons (see Example 23) in the dorsal horn (DH) of the spinal cord is used to track the effect of an inflammatory insult (subcutaneous injection of CFA into the left hind paw). As described above in Example 23, we initially dissected perfusion-fixed spinal cords and then cut in the transverse plane 50 μm thick serial sections throughout the entire length of the lumbar cord of each animal using a vibratome aiming to capture all sections. As serial sections are cut, they are placed into 10 section bins (500 μm spinal cord per bin) and a total of 12 bins are collected spanning 6 mm total spinal cord length. […] Focusing in on this “sweet spot” of 4 bins, the additional sections were mounted and analyzed (aiming for at least 12 sections from these 4 bins, 3 per bin) to increase total data to analyze.
In another example, 307 Axioscan imaged lumbar spinal cord sections from the “sweet spots” of eight+/+wild-type mice subjected to Zymosan pain model and oral dosing of either vehicle (n=3), 3511-I (2×HCl, n=3), or BQPB4 (3×HCl, n=2) were analyzed. […] There was also a trend towards lower overall Tom+ ratios in the 3511-I or BQPB4 treated mice, though the numbers of mice analyzed here were too low to reveal significance.

aqueous solubility = type: physicochemical; settings: for solubility in water: salt forms
Description: FIG. 45 depicts tests of salt forms of A20 and A20-1 for aqueous solubility. Compounds were provided to the UT Southwestern PK Core facility and tested for soluble in water. While both are quite soluble, A20 salt was especially so and can be made into a […] solution, whereas A20-I salt can be dissolved into >15% solution.
A study was conducted with A20 salt dissolved solely in PBS and injected at 20 mg/kg to match the previously described study of the free-base. […] The results from the brain, spinal cord, and liver tissues are particularly outstanding and indicate that significant levels of A20 salt remain even after the final collection at 24 hr time point.
(§1) To examine the drug-like nature of the disclosed compounds, tests for solubility was conducted.

[2] = in vitro plasma stability; type: in vitro ADME; settings: mouse plasma; for plasma stability: free base or salt
Description: FIG. 46 depicts tests of A20 and A20-I free base and salt forms for in vitro plasma stability. Compounds were provided to the UT Southwestern PK Core facility and tested for stability when incubated with mouse plasma.
as §1

EphB2-His-Fc = assay: single-protein counter ELISA; settings: 5 μM
Description: The 32 hits were then subjected to ELISA in which EphB1-Fc was first immobilized in 96 well Protein A plates, then soluble EB2-His was added with hit compound in triplicate, again at 5 μM. After 2 hr at RT to allow EB2-His binding to EphB1-Fc, wells were washed, incubated with nickel-activated horseradish peroxidase (HisProbe-HRP) to detect bound EB2-His protein, washed, and then incubated with ELISA Pico Chemiluminescent Substrate (both from Thermo-Fisher) before being read in a luminometer. A single-protein counter ELISA using the dual-tagged EphB2-His-Fc ectodomain protein was also run. […] For simplicity, we call this compound A20.

EphrinB1-EphB1 = molecular target: T1, EphrinB1-EphB1 (Homo sapiens, UniProt P54762); assay: Octet, immobilized human EphrinB1 binding to human EphB1
T1 sequence (P54762 18-540 limits assumed): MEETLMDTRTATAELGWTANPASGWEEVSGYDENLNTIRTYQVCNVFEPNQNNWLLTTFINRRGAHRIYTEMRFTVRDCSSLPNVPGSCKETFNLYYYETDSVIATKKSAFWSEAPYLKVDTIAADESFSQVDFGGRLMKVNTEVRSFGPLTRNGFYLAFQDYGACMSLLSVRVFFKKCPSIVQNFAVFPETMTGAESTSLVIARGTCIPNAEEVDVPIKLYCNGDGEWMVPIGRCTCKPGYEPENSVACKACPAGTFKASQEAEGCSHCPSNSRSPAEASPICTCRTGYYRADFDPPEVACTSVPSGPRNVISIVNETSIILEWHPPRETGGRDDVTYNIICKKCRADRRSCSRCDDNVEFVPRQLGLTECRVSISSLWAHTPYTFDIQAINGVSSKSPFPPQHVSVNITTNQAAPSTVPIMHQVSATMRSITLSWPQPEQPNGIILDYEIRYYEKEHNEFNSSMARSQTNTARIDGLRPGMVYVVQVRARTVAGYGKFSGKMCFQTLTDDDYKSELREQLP
Description: Studies were conducted to confirm that A20 chemicals can effectively target the human Eph/Ephrin proteins. Octet system was used to first characterize the biophysical interactions of the human B class Eph and Ephrin proteins, and then was tested to assess how A20 may disrupt the interactions. Since the human and rodent proteins are highly conserved, and essentially identical, with EphB2 sharing 99.5% identity between human and mouse, with only 5 of ~1,000 amino acids different, any species-specific differences were not anticipated. Therefore, commercially available human EphrinB1-Fc (EB1), EphrinB2-Fc (EB2), and EphrinB3-Fc (EB3) ectodomain proteins were sparsely immobilized onto biosensors and then exposed to 50 nM of soluble human EphB1-His, EphB2-His, and EphB4-His ectodomains for 800 sec association and 1,000 sec dissociation steps with a total of nine different interactions analyzed. In the absence of A20 chemical, the immobilized human EphrinB proteins bound to their appropriate human EphB target proteins; with EphrinB1 only bound EphB1 and EphB2, EphrinB2 bound all three EphB1, EphB2, and EphB4, and EphrinB3 only bound EphB1 and EphB2 (FIG. 19A-19B).
Addition of compound also altered dissociation kinetics. […] This is referred to as the “unsurmountable” component of the Eph-Ephrin interaction (FIG. 21C). Additionally, AUC data was graphed for these runs (FIG. 21D). […] For EB2-EphB4, the dimer:tetramer ratio was 83:8 in the presence of A20 and was not much different from the no compound control run because it is already a strong dimer-driven interaction. […] A similar though more muted effect of A20 on tetramer accumulation was also observed for the other interactions of immobilized human EphrinB binding to soluble human EphB1 and EphB2 ectodomains (FIG. 22). The inhibitory effect of A20 is strongest on the EB2-EphB2 interaction with absolute IC50 reaching 1 μM, followed by the EB2-EphB1 interaction with absolute IC50-10 μM. […]

[3] = water, read-out: aqueous solubility

In the case of `Oc1c(Br)cc(CN2CCN(c3ccc(Br)cc3)CC2)c2cccnc12` [Compound 28, 7-bromo-5-((4-(4-bromophenyl)piperazin-1-yl)methyl)quinolin-8-ol], the “ratio of Tom+ DH neurons” value [1] is reported as “significantly lower ratio of Tom+ neurons compared to the vehicle treated animals”.

With `Oc1c(I)cc(CN2CCOCC2)c2cccnc12` [Compound 7, 7-iodo-5-(morpholinomethyl)quinolin-8-ol] the “solubility in water” value (aqueous solubility) was “extremely soluble in water”, the “plasma half-life longer than A20” value [2] was 3-5 times and the “plasma stability” value [2] was “superior stability”.

In the case of `COc1ccccc1N1CCN(Cc2cc(I)c(O)c3ncccc23)CC1` [Compound 71, 7-iodo-5-((4-(2-methoxyphenyl)piperazin-1-yl)methyl)quinolin-8-ol], the “ratio of Tom+ DH neurons” value [1] is reported as “significantly lower ratio of Tom+ neurons compared to the vehicle treated animals”.

With `Oc1c(Br)cc(CN2CCOCC2)c2cccnc12` [Compound 5, 7-bromo-5-(morpholinomethyl)quinolin-8-ol] the “counter ELISA signal” value (EphB2-His-Fc) was “had no effect on signal in the single-protein ELISA”, the “solubility in water” value (aqueous solubility) was “extremely soluble in water” and the “reduction of tetramer formation” value (EphrinB1-EphB1; EB1-EphB1, A20) was 15%. The “antagonism of EphrinB1/EphrinB3 binding” value (EphrinB1-EphB1; EphB1/EphB2 with EB1 and EB3, species not given) was “can also antagonize EphB1/EphB2 proteins from binding to EphrinB1 (EB1) and EphrinB3 (EB3) proteins”, the IC (maximum) (EphrinB1-EphB1; read-out: concentration producing maximum inhibition) was 1 µM and the “plasma stability” value [2] was “quite stable”.

With `Oc1c(Br)cc(CN2CCOCC2)c2cccnc12` [Compound 6, 4-((7-bromo-8-hydroxyquinolin-1-ium-5-yl)methyl)morpholin-4-ium chloride] the solubility (aqueous solubility; water or pbs, aqueous buffer, read-out: solubility in water or PBS) was > 50 mg/mL and the solubility (aqueous solubility; [3]) was > 1000 mg/mL.

For `Oc1c(I)cc(CN2CCOCC2)c2cccnc12` [Compound 8, 4-((8-hydroxy-7-iodoquinolin-1-ium-5-yl)methyl)morpholin-4-ium chloride], the solubility (aqueous solubility; [3]) was > 150 mg/mL.
